Measured values reported in patent US7820827B2, “Substituted piperidine compounds and methods of their use” (Adolor Corporation, priority 2003, dated 2010).
pKi: −log10 of the molar value.

Experiments:
[1] = molecular target: T1, cloned human κ opioid receptor (Homo sapiens, UniProt P41145); assay: [3H]diprenorphine receptor binding, κ opioid receptor; conditions: [3H]diprenorphine displacement; read-out: affinity (expressed as Ki value) to the κ opioid receptor
T1 construct: expressed in transfected cells
T1 sequence (P41145 whole entry): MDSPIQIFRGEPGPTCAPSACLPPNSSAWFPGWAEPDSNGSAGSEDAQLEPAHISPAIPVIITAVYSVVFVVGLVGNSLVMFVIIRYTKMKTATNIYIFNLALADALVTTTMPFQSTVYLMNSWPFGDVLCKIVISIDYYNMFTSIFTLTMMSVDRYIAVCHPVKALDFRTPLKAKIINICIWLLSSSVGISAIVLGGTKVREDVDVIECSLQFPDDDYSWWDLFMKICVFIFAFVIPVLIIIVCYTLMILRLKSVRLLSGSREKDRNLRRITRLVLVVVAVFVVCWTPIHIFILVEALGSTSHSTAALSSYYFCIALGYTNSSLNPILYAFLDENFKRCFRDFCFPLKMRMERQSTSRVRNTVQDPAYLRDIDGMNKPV
Protocol: (§1) Ki values were obtained by Cheng-Prusoff corrections of IC50 values.
(§2) After dilution in buffer A and homogenization as before, membrane proteins (10-80 μg) in 250 μL were added to mixtures containing test compound and [^3H]diprenorphine (0.5 to 1.0 nM, 40,000 to 50,000 dpm) in 250 μL of buffer A in 96-well deep-well polystyrene titer plates (Beckman). After incubation at room temperature for one hour, the samples were filtered through GF/B filters that had been presoaked in a solution of 0.5% (w/v) polyethylenimine and 0.1% (w/v) bovine serum albumin in water. The filters were rinsed 4 times with 1 mL of cold 50 mM Tris HCl, pH 7.8 and radioactivity remaining on the filters determined by scintillation spectroscopy. Nonspecific binding was determined by the minimum values of the titration curves and was confirmed by separate assay wells containing 10 μM naloxone.
(§3) To determine the equilibrium dissociation constant for the inhibitors (Ki), radioligand bound (cpm) in the presence of various concentrations of test compounds was measured. The concentration to give half-maximal inhibition (EC50) of radioligand binding was determined from a best nonlinear regression fit to the following equation,
(§4) The nonlinear regression fit was performed using the program Prism® (GraphPad Software, San Diego, Calif.). The Ki values were then determined from the EC50 values by the following equation, […]

[2] = molecular target: T2, cloned human δ opioid receptor (Homo sapiens, UniProt P41143); assay: [3H]diprenorphine receptor binding, δ opioid receptor; conditions: [3H]diprenorphine displacement; read-out: affinity (expressed as Ki value) to the δ opioid receptor
T2 construct: expressed in transfected cells
T2 sequence (P41143 whole entry): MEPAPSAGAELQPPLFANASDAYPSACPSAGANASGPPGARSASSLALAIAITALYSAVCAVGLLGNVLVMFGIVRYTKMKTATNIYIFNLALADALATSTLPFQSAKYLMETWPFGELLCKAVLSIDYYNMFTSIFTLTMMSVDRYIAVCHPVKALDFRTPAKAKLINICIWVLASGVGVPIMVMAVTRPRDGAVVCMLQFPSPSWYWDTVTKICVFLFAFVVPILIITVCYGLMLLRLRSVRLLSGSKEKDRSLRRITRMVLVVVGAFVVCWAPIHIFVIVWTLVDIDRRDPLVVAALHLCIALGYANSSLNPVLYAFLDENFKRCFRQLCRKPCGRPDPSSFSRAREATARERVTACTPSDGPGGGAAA
Protocol: as §1, §2, §3, §4

C[C@H]1CN(C[C@H](Cc2ccccc2)C(=O)N[C@@H](CCCN)C(=O)O)CC[C@@]1(C)c1cccc(O)c1 [Example 28, 5-Amino-2(S)-{2(S)-benzyl-3-[4(R)-(3-hydroxy-phenyl)-3(R),4-dimethyl-piperidin-1-yl]-propionylamino}-pentanoic acid]
pKi [1]: 6.70
pKi [2]: 6.29
